Laboratory results taken from US12421225B2, “Heteroaromatic amide derivative and medicament containing the same” (KAKEN PHARMACEUTICAL CO., LTD., priority 2018, dated 2025).

molecular target: human Nav1.7 (Homo sapiens (Human), UniProt Q15858); assay: Human Nav1.7 inhibitory activity evaluation (automated patch clamp QPatch16X, HEK293A cells stably expressing human Nav1.7 and human Navβ1); type: cell-based; details: HEK293A cells stably expressing human Nav1.7 and human Navβ1, automated patch clamp QPatch16X
Sequence (Q15858 whole entry): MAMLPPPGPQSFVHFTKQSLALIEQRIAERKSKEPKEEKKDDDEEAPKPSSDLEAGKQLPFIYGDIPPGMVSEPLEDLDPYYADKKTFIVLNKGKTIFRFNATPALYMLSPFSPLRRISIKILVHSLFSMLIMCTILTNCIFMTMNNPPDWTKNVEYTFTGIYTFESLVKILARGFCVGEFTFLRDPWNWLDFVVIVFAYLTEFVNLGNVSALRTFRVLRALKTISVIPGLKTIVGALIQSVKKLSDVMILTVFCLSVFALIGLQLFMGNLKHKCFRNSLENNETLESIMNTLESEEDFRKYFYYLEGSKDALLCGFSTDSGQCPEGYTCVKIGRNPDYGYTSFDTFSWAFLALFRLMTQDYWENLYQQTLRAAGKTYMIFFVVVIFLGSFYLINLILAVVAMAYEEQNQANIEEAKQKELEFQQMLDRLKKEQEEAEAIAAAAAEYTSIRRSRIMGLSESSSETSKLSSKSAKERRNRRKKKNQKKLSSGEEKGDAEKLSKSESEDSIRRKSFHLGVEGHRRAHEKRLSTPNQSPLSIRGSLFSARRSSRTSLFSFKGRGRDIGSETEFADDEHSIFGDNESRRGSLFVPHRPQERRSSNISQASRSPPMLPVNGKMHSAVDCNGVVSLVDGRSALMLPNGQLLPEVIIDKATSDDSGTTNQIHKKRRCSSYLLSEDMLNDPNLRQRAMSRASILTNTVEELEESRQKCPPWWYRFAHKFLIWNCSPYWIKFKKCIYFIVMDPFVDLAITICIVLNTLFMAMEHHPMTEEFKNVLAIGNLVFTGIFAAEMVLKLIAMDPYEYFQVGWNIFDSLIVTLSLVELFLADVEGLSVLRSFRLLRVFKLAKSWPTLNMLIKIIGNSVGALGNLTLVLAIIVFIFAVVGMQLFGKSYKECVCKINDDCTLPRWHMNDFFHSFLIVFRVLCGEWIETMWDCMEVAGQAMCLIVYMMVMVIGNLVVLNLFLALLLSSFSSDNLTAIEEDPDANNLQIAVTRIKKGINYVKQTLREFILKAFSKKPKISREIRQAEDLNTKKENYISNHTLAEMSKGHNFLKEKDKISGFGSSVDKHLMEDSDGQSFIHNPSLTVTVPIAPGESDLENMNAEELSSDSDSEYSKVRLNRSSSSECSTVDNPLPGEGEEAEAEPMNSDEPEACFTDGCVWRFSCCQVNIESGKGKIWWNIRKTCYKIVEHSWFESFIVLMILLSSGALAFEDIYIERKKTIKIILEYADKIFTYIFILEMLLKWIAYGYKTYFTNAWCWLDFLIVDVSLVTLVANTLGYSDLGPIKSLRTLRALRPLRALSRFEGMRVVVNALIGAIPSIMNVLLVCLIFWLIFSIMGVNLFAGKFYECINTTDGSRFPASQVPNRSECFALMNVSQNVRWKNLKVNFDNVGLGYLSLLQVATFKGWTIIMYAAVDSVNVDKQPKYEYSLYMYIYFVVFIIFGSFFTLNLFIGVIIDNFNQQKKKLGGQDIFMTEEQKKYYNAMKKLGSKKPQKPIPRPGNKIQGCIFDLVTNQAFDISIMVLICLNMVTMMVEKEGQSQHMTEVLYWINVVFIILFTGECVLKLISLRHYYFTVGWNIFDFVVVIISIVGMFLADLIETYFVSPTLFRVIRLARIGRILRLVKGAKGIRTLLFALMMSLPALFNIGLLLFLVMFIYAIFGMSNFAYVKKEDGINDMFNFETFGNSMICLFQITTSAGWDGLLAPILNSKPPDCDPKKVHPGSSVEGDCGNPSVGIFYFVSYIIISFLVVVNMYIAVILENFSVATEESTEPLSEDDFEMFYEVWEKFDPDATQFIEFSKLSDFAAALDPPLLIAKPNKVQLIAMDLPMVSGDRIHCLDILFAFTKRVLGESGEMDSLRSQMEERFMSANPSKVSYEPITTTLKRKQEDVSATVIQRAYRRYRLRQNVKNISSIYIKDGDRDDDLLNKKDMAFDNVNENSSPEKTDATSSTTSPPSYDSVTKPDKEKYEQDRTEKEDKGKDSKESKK
Sequence (Q07699 19-218 partner): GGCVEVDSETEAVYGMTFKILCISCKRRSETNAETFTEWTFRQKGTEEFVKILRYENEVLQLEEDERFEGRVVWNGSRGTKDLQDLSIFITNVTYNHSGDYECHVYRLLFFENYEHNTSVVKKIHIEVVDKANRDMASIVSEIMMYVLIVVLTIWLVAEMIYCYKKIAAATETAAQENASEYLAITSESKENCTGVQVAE
Summary of the method: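 IC50 calculated from the concentration-response of inward current evoked by the second −10 mV, 50 ms depolarisation, which follows a 15 s conditioning step at roughly 30-40% inactivation and a 100 ms −120 mV interval. Cells: HEK293A expressing human Nav1.7/Navβ1, automated patch clamp, room temperature, 0.1% DMSO final.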

IC50 [nM] | Compound
< 10000 | O=C(NC1COc2cccc(Br)c2C1)c1cn2c(n1)CCC(C(F)(F)F)C2 (single isomer, unassigned) [9 (isomer A)]
< 1000 | CCOCC1CCn2nc(C(=O)N[C@H]3COc4ccc(-c5ccccn5)cc4C3)cc2O1 (single isomer, unassigned) [124 (isomer A)]
< 10000 | O=C(N[C@H]1COc2ccc(Cl)cc2C1)c1cn2c(n1)CCC(OCC(F)(F)F)C2 (single isomer, unassigned) [39 (isomer B)]
< 1000 | CC(C)(C)C1CCc2nc(C(=O)N[C@H]3COc4ccccc4C3)cn2C1 (stereo partly drawn) [Example 36]
< 1000 | O=C(NC1COc2cccc(Cl)c2C1)c1cc2n(n1)CCC(c1ccccc1)O2 (stereo not drawn) [Example 77]

same assay, conditions: human Nav1.7, automated patch clamp

Compound | IC50 [nM]
N#CC1(COCC2CCn3nc(C(=O)N[C@H]4COc5ccc(Cl)cc5C4)cc3O2)CC1 (single isomer, unassigned) [563 (isomer A)] | < 10000
CC(C)(F)C1CCn2nc(C(=O)N[C@H]3COc4ccc(C#N)cc4C3)cc2O1 (single isomer, unassigned) [547 (isomer A)] | < 10000
O=C(N[C@H]1COc2ccc(-c3ccccn3)cc2C1)c1cc2n(n1)CC(CCOCC(F)(F)F)O2 (single isomer, unassigned) [207 (isomer B)] | < 1000
Cn1cc(-c2ccc3c(c2)C[C@@H](NC(=O)c2cc4n(n2)CC(CCOC(F)F)O4)CO3)cn1 (single isomer, unassigned) [221 (isomer B)] | < 1000
N#Cc1ccc2c(c1)C[C@@H](NC(=O)c1cc3n(n1)CC(CCOCC1CC1)O3)CO2 (single isomer, unassigned) [202 (isomer B)] | < 1000
N#Cc1ccc2c(c1)C[C@@H](NC(=O)c1cc3n(n1)CCC(CCOC(F)(F)F)O3)CO2 (stereo partly drawn) [Example 143] | < 1000
O=C(N[C@H]1COc2ccc(C(F)(F)F)cc2C1O)c1cc2n(n1)CC(CCCOCC(F)F)O2 (single isomer, unassigned) [608 (isomer B)] | < 1000

More lines, now with the values ahead:

IC50 [nM] | Compound
< 10000 | Cn1ncc(-c2ccc3c(c2)C[C@@H](NC(=O)c2cc4n(n2)CCC(COCC2CC2)O4)CO3)n1 (stereo partly drawn) [Example 429]
< 1000 | O=C(N[C@H]1COc2ccc(C(F)(F)F)cc2C1)c1cc2n(n1)CCN(CCC(F)(F)F)C2 [Example 506]
< 10000 | O=C(N[C@H]1COc2ccc(C(F)(F)F)cc2C1O)c1cc2n(n1)CCN(CCC1CC1)C2 (stereo partly drawn) [Example 593]
< 1000 | O=C(N[C@H]1COc2ccc(COCC(F)(F)F)cc2C1)c1cc2n(n1)CC(CCOC(F)F)O2 (stereo partly drawn) [Example 214]
< 10000 | N#Cc1ccc2c(c1)C[C@@H](NC(=O)c1cc3n(n1)CC(COc1ccccn1)O3)CO2 (stereo partly drawn) [Example 450]
< 1000 | CC1(C)CCn2nc(C(=O)N[C@H]3COc4ccc(-c5ccccn5)cc4C3)cc2O1 [Example 383]
< 10000 | CC1CCn2nc(C(=O)N[C@H]3COc4ccc(COCC(F)(F)F)cc4C3)cc2OC1 (stereo partly drawn) [Example 543]
< 1000 | O=C(N[C@H]1COc2ccc(Br)cc2C1)c1cc2n(n1)CCC(C(F)(F)F)O2 (stereo partly drawn) [Example 171]
< 1000 | O=C(N[C@H]1COc2ccc(CCOC(F)F)cc2C1)c1cc2n(n1)CC(COCC(F)(F)F)O2 (stereo partly drawn) [Example 189]

molecular target: human Nav1.5 (Homo sapiens (Human), UniProt Q14524); assay: Human Nav1.5 inhibitory activity evaluation (automated patch clamp QPatch16X, HEK293 cells stably expressing human Nav1.5); type: cell-based; details: HEK293 cells stably expressing human Nav1.5, automated patch clamp QPatch16X
Sequence (Q14524 whole entry): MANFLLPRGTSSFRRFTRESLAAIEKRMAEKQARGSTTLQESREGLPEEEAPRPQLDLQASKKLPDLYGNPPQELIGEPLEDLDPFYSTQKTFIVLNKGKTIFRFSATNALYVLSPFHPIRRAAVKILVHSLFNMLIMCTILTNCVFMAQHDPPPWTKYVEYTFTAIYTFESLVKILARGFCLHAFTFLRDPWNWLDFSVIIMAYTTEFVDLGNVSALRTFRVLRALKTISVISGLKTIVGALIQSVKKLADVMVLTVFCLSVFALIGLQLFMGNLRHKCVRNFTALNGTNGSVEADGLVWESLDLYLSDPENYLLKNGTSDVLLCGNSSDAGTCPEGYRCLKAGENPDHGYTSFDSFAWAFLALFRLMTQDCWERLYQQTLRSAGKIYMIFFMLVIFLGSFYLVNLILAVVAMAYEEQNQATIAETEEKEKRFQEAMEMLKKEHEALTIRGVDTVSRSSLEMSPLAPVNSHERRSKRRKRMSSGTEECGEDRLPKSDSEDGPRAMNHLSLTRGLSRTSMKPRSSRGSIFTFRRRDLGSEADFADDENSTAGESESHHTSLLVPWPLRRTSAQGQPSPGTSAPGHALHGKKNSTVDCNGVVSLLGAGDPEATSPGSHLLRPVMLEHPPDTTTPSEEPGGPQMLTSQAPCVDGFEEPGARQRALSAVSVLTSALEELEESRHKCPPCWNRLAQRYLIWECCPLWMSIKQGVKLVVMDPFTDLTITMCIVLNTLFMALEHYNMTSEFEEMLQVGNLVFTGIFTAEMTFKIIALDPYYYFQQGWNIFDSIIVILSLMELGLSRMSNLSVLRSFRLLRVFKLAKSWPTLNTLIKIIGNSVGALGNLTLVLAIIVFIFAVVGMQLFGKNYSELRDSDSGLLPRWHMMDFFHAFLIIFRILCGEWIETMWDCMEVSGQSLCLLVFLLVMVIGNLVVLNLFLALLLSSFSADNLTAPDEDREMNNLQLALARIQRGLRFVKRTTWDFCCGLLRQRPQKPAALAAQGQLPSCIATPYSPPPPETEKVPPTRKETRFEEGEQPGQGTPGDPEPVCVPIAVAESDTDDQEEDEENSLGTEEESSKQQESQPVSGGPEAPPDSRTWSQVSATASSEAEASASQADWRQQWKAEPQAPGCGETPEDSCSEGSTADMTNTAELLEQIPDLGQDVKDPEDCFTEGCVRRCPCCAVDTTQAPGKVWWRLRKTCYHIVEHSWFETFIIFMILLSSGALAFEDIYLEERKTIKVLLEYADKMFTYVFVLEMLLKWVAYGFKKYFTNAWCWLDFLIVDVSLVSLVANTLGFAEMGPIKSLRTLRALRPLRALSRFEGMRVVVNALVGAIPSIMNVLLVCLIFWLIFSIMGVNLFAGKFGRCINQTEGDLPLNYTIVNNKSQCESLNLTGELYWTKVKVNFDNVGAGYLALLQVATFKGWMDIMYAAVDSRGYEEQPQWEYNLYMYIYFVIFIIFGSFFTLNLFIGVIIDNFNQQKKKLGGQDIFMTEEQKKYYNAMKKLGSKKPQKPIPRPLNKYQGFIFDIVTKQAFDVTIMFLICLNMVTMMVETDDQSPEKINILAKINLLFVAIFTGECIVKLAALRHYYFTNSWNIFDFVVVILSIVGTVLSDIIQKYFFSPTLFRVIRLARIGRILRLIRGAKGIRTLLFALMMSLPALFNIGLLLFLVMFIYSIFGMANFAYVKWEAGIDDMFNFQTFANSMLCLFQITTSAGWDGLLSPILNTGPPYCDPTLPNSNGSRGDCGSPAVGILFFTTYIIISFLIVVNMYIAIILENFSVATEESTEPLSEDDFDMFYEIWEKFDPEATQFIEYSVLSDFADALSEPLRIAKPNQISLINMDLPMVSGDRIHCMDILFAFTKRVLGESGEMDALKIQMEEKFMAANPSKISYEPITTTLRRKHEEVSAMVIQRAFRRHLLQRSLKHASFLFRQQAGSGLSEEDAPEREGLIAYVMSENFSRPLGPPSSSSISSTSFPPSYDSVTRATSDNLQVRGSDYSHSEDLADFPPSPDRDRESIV
Summary of the method: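 IC50 derived from concentration-response of inward current at the 20th of 20 action-potential-mimicking pulses (holding −80 mV, leak corrected with −100 mV step). HEK293 cells stably expressing human Nav1.5, room temperature, extracellular pH 7.4, intracellular CsF-based pH 7.3, 0.1% DMSO.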

Compound | IC50 [nM]
O=C(NC1COc2cccc(Br)c2C1)c1cn2c(n1)CCC(C(F)(F)F)C2 (single isomer, unassigned) [9 (isomer A)] | ≥ 3000
CCOCC1CCn2nc(C(=O)N[C@H]3COc4ccc(-c5ccccn5)cc4C3)cc2O1 (single isomer, unassigned) [124 (isomer A)] | ≥ 3000
O=C(N[C@H]1COc2ccc(Cl)cc2C1)c1cn2c(n1)CCC(OCC(F)(F)F)C2 (single isomer, unassigned) [39 (isomer B)] | ≥ 3000
CC(C)(C)C1CCc2nc(C(=O)N[C@H]3COc4ccccc4C3)cn2C1 (stereo partly drawn) [Example 36] | ≥ 3000
O=C(NC1COc2cccc(Cl)c2C1)c1cc2n(n1)CCC(c1ccccc1)O2 (stereo not drawn) [Example 77] | ≥ 3000

same assay, conditions: human Nav1.5, automated patch clamp

Compound | IC50 [nM]
Cn1ncc(-c2ccc3c(c2)C[C@@H](NC(=O)c2cc4n(n2)CCC(COCC2CC2)O4)CO3)n1 (stereo partly drawn) [Example 429] | ≥ 3000
O=C(N[C@H]1COc2ccc(C(F)(F)F)cc2C1)c1cc2n(n1)CCN(CCC(F)(F)F)C2 [Example 506] | 1000 to 3000
O=C(N[C@H]1COc2ccc(C(F)(F)F)cc2C1O)c1cc2n(n1)CCN(CCC1CC1)C2 (stereo partly drawn) [Example 593] | 1000 to 3000
O=C(N[C@H]1COc2ccc(COCC(F)(F)F)cc2C1)c1cc2n(n1)CC(CCOC(F)F)O2 (stereo partly drawn) [Example 214] | 1000 to 3000
N#CC1(COCC2CCn3nc(C(=O)N[C@H]4COc5ccc(Cl)cc5C4)cc3O2)CC1 (single isomer, unassigned) [563 (isomer A)] | 1000 to 3000
CC(C)(F)C1CCn2nc(C(=O)N[C@H]3COc4ccc(C#N)cc4C3)cc2O1 (single isomer, unassigned) [547 (isomer A)] | ≥ 3000
N#Cc1ccc2c(c1)C[C@@H](NC(=O)c1cc3n(n1)CC(COc1ccccn1)O3)CO2 (stereo partly drawn) [Example 450] | ≥ 3000
O=C(N[C@H]1COc2ccc(-c3ccccn3)cc2C1)c1cc2n(n1)CC(CCOCC(F)(F)F)O2 (single isomer, unassigned) [207 (isomer B)] | 1000 to 3000
CC1(C)CCn2nc(C(=O)N[C@H]3COc4ccc(-c5ccccn5)cc4C3)cc2O1 [Example 383] | ≥ 3000
Cn1cc(-c2ccc3c(c2)C[C@@H](NC(=O)c2cc4n(n2)CC(CCOC(F)F)O4)CO3)cn1 (single isomer, unassigned) [221 (isomer B)] | 1000 to 3000
CC1CCn2nc(C(=O)N[C@H]3COc4ccc(COCC(F)(F)F)cc4C3)cc2OC1 (stereo partly drawn) [Example 543] | ≥ 3000
O=C(N[C@H]1COc2ccc(Br)cc2C1)c1cc2n(n1)CCC(C(F)(F)F)O2 (stereo partly drawn) [Example 171] | 1000 to 3000
N#Cc1ccc2c(c1)C[C@@H](NC(=O)c1cc3n(n1)CC(CCOCC1CC1)O3)CO2 (single isomer, unassigned) [202 (isomer B)] | < 1000
N#Cc1ccc2c(c1)C[C@@H](NC(=O)c1cc3n(n1)CCC(CCOC(F)(F)F)O3)CO2 (stereo partly drawn) [Example 143] | ≥ 3000
O=C(N[C@H]1COc2ccc(C(F)(F)F)cc2C1O)c1cc2n(n1)CC(CCCOCC(F)F)O2 (single isomer, unassigned) [608 (isomer B)] | ≥ 3000
O=C(N[C@H]1COc2ccc(CCOC(F)F)cc2C1)c1cc2n(n1)CC(COCC(F)(F)F)O2 (stereo partly drawn) [Example 189] | ≥ 3000
